Calls of active or inactive are those of the source. No cut-off for these calls is given here.
What was measured:
[1] = tested on: A549; assay: Cytotoxicity against human A549 cells after 72 hrs by CCK-8 assay; assay type: functional, cell-based; details: A549, 72 h
[2] = tested on: HUVEC; assay: Antiproliferative activity against activated HUVECs after 48 hrs by CCK-8 assay; assay type: functional, cell-based; details: Homo sapiens
[3] = tested on: HUVEC; assay: Selectivity ratio of IC50 for quesicent HUVECs to IC50 for activated HUVECs; assay type: functional, Homo sapiens
[4] = tested on: HUVEC; assay: Antiproliferative activity against quesicent HUVECs after 48 hrs by CCK-8 assay; assay type: cell-based; details: Homo sapiens
[5] = tested on: HeLa; assay: Cytotoxicity against human HeLa cells after 72 hrs by CCK-8 assay; assay type: functional, cell-based
[6] = tested on: HT-1080; assay: Cytotoxicity against human HT1080 cells after 72 hrs by CCK-8 assay; assay type: functional, cell-based; details: HT-1080, 72 h
[7] = tested on: HepG2; assay: Cytotoxicity against human HepG2 cells after 72 hrs by CCK-8 assay; assay type: functional, cell-based; details: HepG2, 72 h
[8] = tested on: A549; assay: Antiangiogenic activity in human A549 cells xenografted in BALB/c nu/nu mouse assessed as disruption of tumor vasculature at 100 mg/kg, ip after 16 hrs by Hoechst 33342 staining-based Zeiss microscopic analysis relative to control; assay type: functional; details: route intraperitoneal
[9] = tested on: A549; assay: Antimitotic activity in human A549 cells assessed as disruption of microtubule organization at 0.01 uM after 16 hrs by DAPI staining-based Zeiss microscopic analysis relative to control; assay type: functional, cell-based
[10] = tested on: HUVEC; assay: Antiangiogenic activity in quesicent HUVECs assessed as disruption of preformed capillaries at 0.1 uM after 4 hrs by light microscopic analysis (reference value: 11%); assay type: cell-based; details: human
[11] = tested on: HUVEC; assay: Antiangiogenic activity in activated HUVECs assessed as inhibition of capillary tube formation at 0.1 uM after 22 hrs by light microscopic analysis; assay type: functional, cell-based; details: Homo sapiens
[12] = tested on: A549; assay: Cell cycle arrest in human A549 cells assessed as accumulation at G2/M phase at 0.1 uM after 24 hrs by propidium iodide staining-based FACS flow cytometric analysis (reference value: 8.52%); assay type: functional
[13] = tested on: A549; assay: Cell cycle arrest in human A549 cells assessed as accumulation at S phase at 0.1 uM after 24 hrs by propidium iodide staining-based FACS flow cytometric analysis (reference value: 32.56%); assay type: functional
[14] = tested on: A549; assay: Antimitotic activity in human A549 cells assessed as disruption of microtubule organization at 0.1 uM after 16 hrs by DAPI staining-based Zeiss microscopic analysis relative to control; assay type: functional, cell-based
[15] = tested on: HUVEC; assay: Antiangiogenic activity in quesicent HUVECs assessed as disruption of preformed capillaries at 1 uM after 4 hrs by light microscopic analysis relative to control; assay type: cell-based; details: human
[16] = target: Tubulin (Homo sapiens) (UniProt P68371+Q9H4B7+P0DPH7+P68366+Q13509+Q71U36+P04350+Q3ZCM7+P07437+P68363+Q9BQE3+Q6PEY2+Q13885+Q9BVA1+Q9BUF5); assay: Inhibition of tubulin polymerization in human A549 cells at 0.1 uM after 6 hrs by Western blotting analysis; assay type: cell-based
[17] = tested on: A549; assay: Cell cycle arrest in human A549 cells assessed as accumulation at G1 phase at 0.1 uM after 24 hrs by propidium iodide staining-based FACS flow cytometric analysis (reference value: 53.57%); assay type: functional
[18] = tested on: A549; assay: Antimitotic activity in human A549 cells assessed as disruption of microtubule organization at 0.05 uM after 16 hrs by DAPI staining-based Zeiss microscopic analysis relative to control; assay type: functional, cell-based

COc1ccc(C(=O)n2ccc3cc(OC)c(OC)c(OC)c32)cc1
IC50 [1]: > 10000 nM

COc1ccc(C(=O)c2c(C)n(C)c3c(OC)c(OC)c(OC)cc23)cc1O
IC50 [2]: 43.7 nM
Ratio IC50 [3]: 3.68
IC50 ([4]; read-out: IC50): 161 nM
IC50 [5]: 632 nM
IC50 [6]: 574 nM
IC50 [7]: 91.6 nM
IC50 [1]: 108 nM

COc1ccc(Cc2c[nH]c3c(OC)c(OC)c(OC)cc23)cc1
IC50 [1]: 2990 nM

COc1ccc(/C=C\c2cc(OC)c(OC)c(OC)c2)cc1O [COMBRETASTATIN A4]
IC50 [2]: 3.34 nM
Ratio IC50 [3]: 2.66
IC50 ([4]; read-out: IC50): 8.9 nM
Activity [8]: 72%
Activity [9]: Active
IC50 [1]: 3.64 nM

COc1ccc(C(=O)c2c[nH]c3c(OC)c(OC)c(OC)cc23)cc1
IC50 [1]: 8290 nM

COc1ccc(Cc2c[nH]c3c(OC)c(OC)c(OC)cc23)cc1F
IC50 [1]: 387 nM

COc1ccc(C(=O)c2cn(S(=O)(=O)c3ccccc3)c3c(OC)c(OC)c(OC)cc23)cc1
IC50 [1]: > 10000 nM

COc1ccc(C(=O)c2c[nH]c3c(OC)c(OC)c(OC)cc23)cc1O
IC50 [2]: 327 nM
Ratio IC50 [3]: 9.1
IC50 ([4]; read-out: IC50): 2980 nM
IC50 [1]: 166 nM

COc1ccc(C(=O)c2cn(C(C)=O)c3c(OC)c(OC)c(OC)cc23)cc1
IC50 [1]: 5270 nM

COc1ccc(Cn2ccc3cc(OC)c(OC)c(OC)c32)cc1O
IC50 [1]: 3190 nM

COc1ccc(C(=O)c2c[nH]c3c(OC)c(OC)c(OC)cc23)cc1F
IC50 [1]: > 10000 nM

COc1cc2c(c(OC)c1OC)-c1ccc(OC)c(=O)cc1[C@@H](NC(C)=O)CC2 [COLCHICINE]
IC50 [2]: 8.91 nM
IC50 [4]: 7.6 nM
IC50 [5]: 37.4 nM
Activity [10]: 56%
IC50 [6]: 15.4 nM
IC50 [7]: 46.7 nM
inhibition [11]: Active

COc1ccc(C(=O)c2cn(C)c3c(OC)c(OC)c(OC)cc23)cc1
IC50 [1]: 482 nM

COc1ccc(Cc2c[nH]c3c(OC)c(OC)c(OC)cc23)cc1O
IC50 [2]: 228 nM
Ratio IC50 [3]: 10.8
IC50 ([4]; read-out: IC50): 2450 nM
IC50 [5]: 149 nM
IC50 [6]: 118 nM
IC50 [7]: 72.2 nM
IC50 [1]: 118 nM

COc1ccc(C(=O)c2c(C)[nH]c3c(OC)c(OC)c(OC)cc23)cc1O
IC50 [1]: 2620 nM

COc1ccc(C(=O)n2ccc3cc(OC)c(OC)c(OC)c32)cc1O
IC50 [1]: > 10000 nM

COc1ccc(Cc2cn(C)c3c(OC)c(OC)c(OC)cc23)cc1O
Activity [12]: 80.48%
IC50 [2]: 8.9 nM
IC50 ([4]; read-out: IC50): 6300 nM
Activity [13]: 14.7%
IC50 [5]: 40.7 nM
Activity [10]: 10%
IC50 [6]: 42.2 nM
IC50 [7]: 45.5 nM
IC50 [1]: 71.7 nM
Activity [14]: Active
Activity [15]: 51%
inhibition [16]: 31%
Activity [17]: 3.9%
inhibition [11]: Active

COc1cccc(C(=O)c2c[nH]c3c(OC)c(OC)c(OC)cc23)c1
IC50 [1]: > 10000 nM

COc1ccc(Cn2ccc3cc(OC)c(OC)c(OC)c32)cc1
IC50 [1]: 3090 nM

COc1cc2c(C(=O)c3ccc(C)cc3)c[nH]c2c(OC)c1OC
IC50 [1]: > 10000 nM

COc1ccc(C(=O)c2cn(C)c3c(OC)c(OC)c(OC)cc23)cc1F
IC50 [2]: 96.4 nM
Ratio IC50 [3]: 1.56
IC50 ([4]; read-out: IC50): 151 nM
IC50 [1]: 146 nM

COc1ccc(C(=O)c2cn(C)c3c(OC)c(OC)c(OC)cc23)cc1O
Activity [12]: 78.85%
IC50 [2]: 25.3 nM
Ratio IC50 [3]: 207
Activity [18]: Active
IC50 ([4]; read-out: IC50): 5240 nM
Activity [13]: 14.34%
Activity [8]: 68%
IC50 [5]: 125 nM
Activity [10]: 13%
IC50 [6]: 26.3 nM
IC50 [7]: 44.5 nM
IC50 [1]: 28.3 nM
Activity [15]: 49%
inhibition [16]: 27%
Activity [17]: 5.07%
inhibition [11]: Active

COc1cc(Cc2c[nH]c3c(OC)c(OC)c(OC)cc23)cc(OC)c1OC
IC50 [1]: > 10000 nM

COc1cc(C(=O)c2c[nH]c3c(OC)c(OC)c(OC)cc23)cc(OC)c1OC
IC50 [1]: > 10000 nM

COc1ccc(C(=O)c2c[nH]c3c(OC)c(OC)c(OC)cc23)cc1I
IC50 [1]: > 10000 nM

COc1ccc(C(=O)c2c[nH]c3c(OC)c(OC)c(OC)cc23)cc1Cl
IC50 [1]: > 10000 nM

COc1ccc(Cc2cn(C)c3c(OC)c(OC)c(OC)cc23)cc1F
IC50 [1]: 144 nM

COc1ccccc1C(=O)c1c[nH]c2c(OC)c(OC)c(OC)cc12
IC50 [1]: > 10000 nM

Source: ChEMBL document CHEMBL2331442, “Synthesis and structure-activity relationships of N-methyl-5,6,7-trimethoxylindoles as novel antimitotic and vascular disrupting agents” (J Med Chem, 2013)
